From publication PMC8282797, “Strictly regulated agonist-dependent activation of AMPA-R is the key characteristic of TAK-653 for robust synaptic responses and cognitive improvement” (Scientific Reports, 2021)

Tests used:
GluA2o LBD = GluA2o LBD (Homo sapiens, UniProt P42262); assay: SPA binding of [3H]-AMPA to His-LBD
Text: We previously reported that structural interference at Ser750 in the channel-closed state of GluA2o LBD might be involved in the molecular mechanisms underlying the lower agonistic effect of AMPA-R potentiators with dihydropyridothiadiazine 2,2-dioxide derivatives and discovered TAK-137, 9-(4-phenoxyphenyl)-3,4-dihydropyrido[2,1-c][1,2,4]thiadiazine 2,2-dioxide (Fig. 1A)[16]. […] TAK-653 bound to the intradimer interface formed by the ligand binding core (Fig. 1B). […] Binding affinity of TAK-653 to the GluA2o LBD was measured by a scintillation proximity assay (SPA) using [^3H]-HBT1, a radio-labeled LBD-binding AMPA-R potentiator, and a His-tagged GluA2o LBD protein (His-LBD)[21]. […] Binding of [^3H]-TAK-653 to His-LBD was also measured by SPA.
The SPA assays were performed as previously described, with some modifications. First, 62.5 μg YSi (2–5 μm) copper his-tag SPA beads (PerkinElmer Inc., Waltham, MA) and 0.25 μg His-tagged GluA2o LBD protein (His-LBD) were incubated in 100 μL PBS containing 0.01% NP-40 and 100 μM glutamate for the [^3H]-HBT1/LBD binding assay, containing 0.01% NP-40 and the indicated amount of glutamate for the [^3H]-TAK-653/LBD binding assay or containing 0.001% Triton X-100 for the [^3H]-AMPA/LBD binding assay in 96-well Luminunc plates (Thermo Fisher Scientific Inc.) overnight at 4 °C. Subsequently, test compound and tritium-labeled ligand (40 nM [^3H]-HBT1, 20 nM [^3H]-TAK-653 or 20 nM [^3H]-AMPA) were added to each well. Specific binding was defined as total binding minus nonspecific binding, which was estimated in the presence of 0.25 μg of control protein (His-tagged macrophage MIF protein) instead of His-LBD or in the presence of 3 mM AMPA. Radioactivity derived from the bound radio ligand was measured using a microplate scintillation counter (TopCount NXT, PerkinElmer Inc.).

BDNF mRNA = BDNF mRNA expression in mouse hippocampus; assay type: in vivo; details: 3 and 10 mg/kg, p.o.
Procedure: (§1) Male ICR mice at 7 weeks old were treated with orally administered vehicle or TAK-653. For the repeated dose study, TAK-653 (0.3 mg/kg, p.o.) or vehicle was administered for 14 days. AMPA at designated doses was intravenously (i.v.) administered 1 h after oral administration. Three hours after i.v. administration of AMPA, right hippocampi were isolated from the mice by euthanasia and acutely frozen on dry ice. Total RNA from mouse hippocampus was extracted with RNeasy 96 kit (Qiagen, Hilden, Germany). Reverse transcription of total RNA was performed using the High-capacity cDNA Archive kit (Life Technologies, Carlsbad, CA). Real-time quantitative PCR was carried out using an ABI PRISM 7900HT sequence detection system (Life Technologies) using PCR reagents (Nippon Gene Co. Limited, Toyama, Japan). Primers used for BDNF analyses were as follows: BDNF forward primer, 5’-[…]-3’; BDNF reverse primer, 5’-[…]-3’; BDNF TaqMan probe, 5’-FAM- […]-TAMRA-3’. Primers used for Gadd45b analyses were as follows: Gadd45b forward primer, 5’-[…]-3’; Gadd45b reverse primer, 5’-GCGCCAGCCTCTGCAT-3’; Gadd45b TaqMan probe, 5’'-FAM-[…]-MGB-3’. […] Concentrations of GAPDH mRNA were used for internal controls and relative BDNF or Gadd45b mRNA/GAPDH mRNA levels were calculated.

BDNF and Gadd45b mRNA = assay: AMPA-induced BDNF and Gadd45b mRNA after 14 days of dosing; assay type: in vivo, mouse; details: pre-administration 0.3 mg/kg, p.o. for 14 days
Procedure: as §1

GluA2o LBD, sequence (P42262 with tags, fused parts or gaps): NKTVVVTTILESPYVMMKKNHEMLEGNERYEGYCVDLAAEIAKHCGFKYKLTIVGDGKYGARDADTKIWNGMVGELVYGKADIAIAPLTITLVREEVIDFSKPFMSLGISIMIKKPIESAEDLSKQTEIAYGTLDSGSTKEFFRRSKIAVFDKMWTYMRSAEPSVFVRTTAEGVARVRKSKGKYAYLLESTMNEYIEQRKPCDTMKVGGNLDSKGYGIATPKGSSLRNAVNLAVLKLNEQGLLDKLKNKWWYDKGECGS

**Q.** Which “Inhibition of specific binding of [3H]-AMPA to His-LBD” value (GluA2o LBD) does the source give for CC1=CN2CCS(=O)(=O)N=C2C(c2ccc(OC3CCCCC3)cc2)=N1 [TAK-653, 9-[4-(Cyclohexyloxy)phenyl]-7-methyl-3,4-dihydropyrazino[2,1-c][1,2,4]thiadiazine 2,2-dioxide] here?
**A.** did not inhibit

**Q.** What about the EC50 (GluA2o LBD; SPA, 20 nM [3H]-AMPA, read-out: EC50 of increase in [3H]-AMPA binding) of the same compound?
**A.** 1500 ± 200 nM

**Q.** What about the Emax (GluA2o LBD; SPA, 20 nM [3H]-AMPA, read-out: Emax of increase in [3H]-AMPA binding) of the same compound?
**A.** 19.9 ± 3.4%

**Q.** What about the “BDNF mRNA levels in hippocampus” value (BDNF mRNA; AMPA (3.5 mg/kg, i.v.)-treated mice) of the same compound?
**A.** significantly increased

**Q.** And the “BDNF mRNA levels in hippocampus” value (BDNF mRNA; compound alone)?
**A.** did not increase

**Q.** And the “AMPA-induced BDNF and Gadd45b mRNA expression in hippocampus” value (BDNF and Gadd45b mRNA)?
**A.** did not affect
